Measurements: patent publication US20220031723A1, “POWDERED FOOD COMPOSITION COMPRISING ERIOCITRIN” (EUROMED, S.A., priority 2020, published 2022)
Converted amounts (≈) assume the structure as drawn.

Columns and labels:
[1] = cited from earlier work; for water solubility: in water
[2] = Occurrence of plasma and urine metabolites in volunteers after consuming lemon or orange extract; format: in vivo, human; details: human, in vivo
Excerpt: Through a targeted metabolomic strategy, a total of 17 metabolites were tentatively identified (Table 3). No hesperidin or eriocitrin-derived metabolites were detected in any volunteer at baseline. All the identified metabolites were detected at least in one volunteer, independently of the extract consumed, except for the metabolites M9 (eriodictyol sulfoglucuronide) and M11 (hesperetin sulfoglucuronide), which only were detected after consuming lemon and orange extract, respectively (Table 3). These representative EICs illustrate the metabolites identified in urine (F3 fraction) after consuming lemon (FIG. 3A) and orange (FIG. 3B) extracts, and plasma after consuming lemon (FIG. 3C) and orange (FIG. 3D) extracts. From the 17 metabolites, 16 were detected after consuming lemon extract (except M11), and 15 after consuming orange extract (except M9 and M10 in urine, and M9 and M12 in plasma) (Table 3).

[3] = Urinary excretion of quantified metabolites in collected fractions after extract intake; format: in vivo, human; details: mean ± SD; for Metabolite quantified in urine fraction F1: fraction 0 to 4 h; for Metabolite quantified in urine fraction F2: fraction 4 to 8 h; for Metabolite quantified in urine fraction F3: fraction 8 to 10 h; for Metabolite quantified in urine fraction F4: fraction collected at 24 h (10-24 h); for Metabolite quantified in urine, Total F (24 h): sum of fractions F1-F4
Protocol: Table 4 and Table 5 show the urinary excretion of quantified metabolites at the different fractions collected, i.e., 0-4 h (F1), 4-8 h (F2), 8-10 h (F3), and 10-24 h (F4), after extracts intake.

Row | Compound | solubility in water [1] | water solubility [1] | Occurrence Plasma LE (number of volunteers in whom metabolite was detected) [2] | Occurrence Plasma LE (second column so headed; number of volunteers in whom metabolite was detected) [2] | Occurrence Urine LE (number of volunteers in whom metabolite was detected) [2] | Occurrence Urine LE (second column so headed; number of volunteers in whom metabolite was detected) [2] | Metabolite quantified in urine fraction F1 ([3]; after consuming lemon extract) | Metabolite quantified in urine fraction F2 ([3]; after consuming lemon extract) | Metabolite quantified in urine fraction F3 ([3]; after consuming lemon extract) | Metabolite quantified in urine fraction F4 ([3]; after consuming lemon extract) | Metabolite quantified in urine, Total F (24 h) ([3]; after consuming lemon extract) | Metabolite quantified in urine fraction F1 ([3]; after consuming orange extract) | Metabolite quantified in urine fraction F2 ([3]; after consuming orange extract) | Metabolite quantified in urine fraction F3 ([3]; after consuming orange extract) | Metabolite quantified in urine fraction F4 ([3]; after consuming orange extract) | Metabolite quantified in urine, Total F (24 h) ([3]; after consuming orange extract)
1 | C[C@@H]1O[C@@H](OC[C@H]2O[C@@H](Oc3cc(O)c4c(c3)O[C@H](c3ccc(O)c(O)c3)CC4=O)[C@H](O)[C@@H](O)[C@@H]2O)[C@H](O)[C@H](O)[C@H]1O [eriocitrin, Eriocitrin] | 4000 micrograms/ml | about 40 mg/ml | – | – | – | – | – | – | – | – | – | – | – | – | – | –
2 | COc1ccc([C@@H]2CC(=O)c3c(O)cc(O[C@@H]4O[C@H](CO[C@@H]5O[C@@H](C)[C@H](O)[C@@H](O)[C@H]5O)[C@@H](O)[C@H](O)[C@H]4O)cc3O2)cc1O [hesperidin, Hesperidin, reference compound] | 5 micrograms/ml | 4.9 µg/mL (≈ 8.03 µM) | – | – | – | – | – | – | – | – | – | – | – | – | – | –
3 | Eriodictyol sulfate [M13] | – | – | 16 | 10 | 16 | 12 | 4.6 ± 5.0 μg/mg creatinine | 14.6 ± 17.3 μg/mg creatinine | 11.9 ± 12.6 μg/mg creatinine | 1.5 ± 1.5 μg/mg creatinine | 32.6 ± 36.5 μg/mg creatinine | 0.02 ± 0.01 μg/mg creatinine | 0.1 ± 0.1 μg/mg creatinine | 0.2 ± 0.4 μg/mg creatinine | 0.3 ± 0.4 μg/mg creatinine | 0.6 ± 0.9 μg/mg creatinine
4 | Homoeriodictyol glucuronide [M6] | – | – | 16 | 3 | 16 | 3 | 13.9 ± 16.2 μg/mg creatinine | 48.1 ± 90.0 μg/mg creatinine | 37.2 ± 56.9 μg/mg creatinine | 6.8 ± 8.0 μg/mg creatinine | 106 ± 171 μg/mg creatinine | – | – | – | – | –
5 | Homoeriodictyol sulfate [M10] | – | – | 16 | 3 | 16 | 0 | 3.8 ± 3.2 μg/mg creatinine | 4.0 ± 5.5 μg/mg creatinine | 3.6 ± 4.1 μg/mg creatinine | 0.5 ± 0.4 μg/mg creatinine | 9.6 ± 11.3 μg/mg creatinine | – | – | – | – | –
